Results as given in PMC4929166, “Pharmacological evaluation of synthetic cannabinoids identified as constituents of spice” (Forensic Toxicology, 2016).
Where two headings read alike, the source gives them in different places.

Columns and labels:
[1] = molecular target: T1, human GPR55 (Homo sapiens, UniProt Q9Y2T6); conditions: read-out: Human GPR55 IC50; ref [48]; cited from earlier work
T1 construct: β-galactosidase enzyme fragment (PathHunter complementation tag)

[2] = molecular target: T2, human GPR18 (Homo sapiens, UniProt Q14330); parameters: method as in PMID 22916707; conditions: read-out: Human GPR18 IC50; ref [47]; cited from earlier work
T2 construct: β-galactosidase enzyme fragment (PathHunter complementation tag)
T2 sequence (Q14330 1-331): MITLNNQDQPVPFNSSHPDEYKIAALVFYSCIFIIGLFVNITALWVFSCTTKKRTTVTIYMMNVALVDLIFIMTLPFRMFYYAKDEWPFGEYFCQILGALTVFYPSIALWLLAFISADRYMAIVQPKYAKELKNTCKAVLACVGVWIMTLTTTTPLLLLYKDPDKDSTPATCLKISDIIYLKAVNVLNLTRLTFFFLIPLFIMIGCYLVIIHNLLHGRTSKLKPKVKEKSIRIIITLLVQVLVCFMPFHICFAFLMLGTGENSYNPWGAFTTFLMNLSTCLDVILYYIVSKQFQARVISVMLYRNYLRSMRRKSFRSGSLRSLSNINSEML

[3] = molecular target: CB1; conditions: Fig. 1, standard agonists; ref [14]; cited from earlier work
[4] = molecular target: CB2; conditions: Fig. 1, standard agonists; ref [14]; cited from earlier work
[5] = molecular target: Human CB2; conditions: cited from earlier work; for Ki: read-out: Ki Human CB2 (literature) (converted)
[6] = molecular target: T1, human GPR55; assay: β-Arrestin recruitment assay (PathHunter) at GPR55; format: cell-based; conditions: for Human GPR55 % activation: percent in brackets beside EC50 >10 µM; for Human GPR55 % inhibition: percent in brackets beside IC50
Experimental: (§1) Recruitment of β-arrestin to the respective receptor was detected by using β-galactosidase enzyme fragment complementation technology (β-arrestin PathHunter™ assay, DiscoverX, Fremont, CA, USA) as previously described. Data were obtained from three independent experiments, performed in duplicates. Data were analyzed using Graph Pad Prism Version 4.02 (San Diego, CA, USA).

[7] = molecular target: T2, human GPR18; assay: β-Arrestin recruitment assay (PathHunter) at GPR18; format: cell-based; conditions: for Human GPR18 % activation: percent in brackets beside EC50 >10 µM; for Human GPR18 % inhibition: percent in brackets beside IC50
Experimental: as §1

[8] = molecular target: Human CB1; conditions: cited from earlier work; for Ki: read-out: Ki Human CB1 (literature) (converted)
[9] = molecular target: T3, CB2 receptor (Homo sapiens, UniProt P34972); assay: biochemical; format: binding; parameters: expressed in transfected cells; host or cells: CHO cells (membrane preparation)
T3 sequence (P34972 whole entry): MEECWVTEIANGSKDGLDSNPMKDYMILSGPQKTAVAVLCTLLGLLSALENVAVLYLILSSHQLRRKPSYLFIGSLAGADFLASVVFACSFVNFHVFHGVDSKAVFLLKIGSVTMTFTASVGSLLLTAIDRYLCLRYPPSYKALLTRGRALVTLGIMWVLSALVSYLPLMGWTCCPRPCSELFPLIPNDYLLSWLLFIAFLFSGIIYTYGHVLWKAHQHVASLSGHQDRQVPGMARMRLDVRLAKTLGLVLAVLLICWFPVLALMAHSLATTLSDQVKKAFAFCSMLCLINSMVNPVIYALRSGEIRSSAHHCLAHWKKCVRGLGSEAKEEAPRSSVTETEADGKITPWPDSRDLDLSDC

[10] = molecular target: T4, CB1 receptor (Homo sapiens, UniProt P21554); assay: biochemical; format: binding; parameters: expressed in transfected cells; host or cells: CHO cells (membrane preparation); conditions: for CB1 selectivity Ki CB2/KiCB1: Table S1, selectivity index from Ki values
T4 sequence (P21554 whole entry): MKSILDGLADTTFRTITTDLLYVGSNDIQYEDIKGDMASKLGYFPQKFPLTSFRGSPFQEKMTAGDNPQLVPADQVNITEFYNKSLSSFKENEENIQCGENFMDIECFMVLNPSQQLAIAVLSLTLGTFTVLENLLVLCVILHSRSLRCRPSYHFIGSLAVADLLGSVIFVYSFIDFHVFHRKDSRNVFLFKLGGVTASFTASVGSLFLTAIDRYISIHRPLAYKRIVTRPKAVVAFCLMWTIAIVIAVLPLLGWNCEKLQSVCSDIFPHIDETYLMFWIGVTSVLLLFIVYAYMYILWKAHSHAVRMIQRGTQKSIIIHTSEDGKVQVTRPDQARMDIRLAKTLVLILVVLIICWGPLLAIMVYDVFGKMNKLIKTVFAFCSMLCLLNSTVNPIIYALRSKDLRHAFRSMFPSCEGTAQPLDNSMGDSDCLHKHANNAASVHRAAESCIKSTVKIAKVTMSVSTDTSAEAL

[11] = molecular target: T4, CB1 receptor; assay: cell-based; format: cell-based; parameters: expressed in transfected cells; host or cells: CHO cells
[12] = tested on: Human CB1; conditions: ref Banister et al. [28]; read-out: EC50 Human CB1 (literature, functional assay) (converted); cited from earlier work
[13] = tested on: Human CB2; conditions: ref Banister et al. [28]; read-out: EC50 Human CB2 (literature, functional assay) (converted); cited from earlier work
[14] = molecular target: T3, CB2 receptor; assay: cAMP accumulation assay in CHO cells expressing CB2; format: cell-based; parameters: expressed in transfected cells; host or cells: CHO cells; conditions: for efficacy at CB2 receptor (in words): cAMP accumulation, forskolin 10 µM, test concentration 1 µM or 10 µM, normalized to CP55,940
[15] = Human GPR55 IC50, β-arrestin assay, antagonist mode
[16] = versus 0.1 nM [3H]CP55,940, CHO cell membranes, mean ± SEM of three to five experiments, read-out: Ki ± SEM Human CB2
[17] = versus 0.1 nM [3H]CP55,940, CHO cell membranes, mean ± SEM of three to five experiments, read-out: Ki ± SEM Human CB1
[18] = cAMP accumulation, forskolin 10 µM, test concentration 1 µM or 10 µM, normalized to CP55,940
[19] = Table S1, selectivity index from Ki values

T1 sequence (Q9Y2T6 whole entry, the tested form may be a part): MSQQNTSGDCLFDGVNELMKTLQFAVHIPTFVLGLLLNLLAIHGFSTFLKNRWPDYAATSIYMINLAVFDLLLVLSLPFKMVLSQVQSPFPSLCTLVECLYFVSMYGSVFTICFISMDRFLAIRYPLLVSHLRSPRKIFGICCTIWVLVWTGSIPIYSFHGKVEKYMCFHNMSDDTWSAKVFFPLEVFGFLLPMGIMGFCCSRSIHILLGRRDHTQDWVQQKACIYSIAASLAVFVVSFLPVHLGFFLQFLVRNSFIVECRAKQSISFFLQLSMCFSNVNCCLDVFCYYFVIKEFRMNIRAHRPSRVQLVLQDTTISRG

Row | Compound | EC50 [6] [nM] | IC50 [6, 15] [nM] | Human GPR55 % activation ([6]; β-arrestin assay) [%] | Human GPR55 % inhibition ([6]; β-arrestin assay) [%] | EC50 [7] [nM] | IC50 [7] [nM] | Human GPR18 % activation ([7]; β-arrestin assay) [%] | Human GPR18 % inhibition ([7]; β-arrestin assay) [%] | Ki [9, 16] [nM] | Ki [10, 17] [nM] | further results
1 | CCCCCCC(C)(C)c1ccc([C@@H]2CC(O)CC[C@H]2CCCO)c(O)c1 (single isomer, unassigned; (-)) [Compound 2, (−)-cis-3-[2-hydroxy-4-(1,1-dimethylheptyl)phenyl]-trans-4-(3-hydroxypropyl)cyclohexanol] | – | – | – | – | – | – | – | – | – | – | IC50 [1]: 1610 nM; IC50 [2]: 5990 nM
2 | CCCCCn1cc(C(=O)c2cccc3ccccc23)c2ccccc21 [Compound 3, JWH-018] | – | – | – | – | – | – | – | – | – | – | Ki [3]: 9 nM; Ki [4]: 2.9 nM
3 | CCCCCn1cc(C(=O)Nc2cccc3ccccc23)c2ccccc21 [Compound 4, NNEI] | > 10000 | > 10000 | 26 | 30 | > 10000 | > 10000 | 42 | −15 | 21.9 ± 5.5 | 1.82 ± 0.35 | Ki ([5]; ref Blaazer et al. [33]): 100 nM; pKi value at the CB1 receptor ([8]; ref Blaazer et al. [33]): 8.9; Ki ([8]; ref Blaazer et al. [33]): 1.25 nM; CB1 selectivity Ki CB2/KiCB1 [10]: 12.0
4 | CCCCCn1cc(C(=O)Oc2cccc3cccnc23)c2ccccc21 [Compound 24, PB-22] | > 10000 | > 10000 | 15 | -12 | > 10000 | > 10000 | −18 | 26 | 0.433 ± 0.106 | 0.318 ± 0.071 | efficacy at CB1 receptor (in words) [11, 18]: partial agonist with similar efficacy as Δ^9-THC; EC50 [12]: 5.1 nM; EC50 [13]: 2.8 nM; efficacy at CB2 receptor (in words) [14]: partial agonist with similar efficacy as Δ^9-THC; CB1 selectivity Ki CB2/KiCB1 [10]: 1.4
5 | CCCCCn1cc(C(=O)C2C(C)(C)C2(C)C)c2ccccc21 [Compound 37, UR-144] | > 10000 | 6700 ± 1650 | −5 | – | > 10000 | > 10000 | 17 | 14 | 1.49 ± 0.25 | 55.9 ± 6.5 | Ki ([5]; ref Frost et al. [40]): 1.8 nM; Ki ([8]; ref Frost et al. [40]): 150 nM; CB2 selectivity Ki CB1/KiCB2 [9, 19]: 37.5
6 | CC1(C)C(C(=O)c2cn(CCCC(F)(F)F)c3ccccc23)C1(C)C [Compound 41, XLR-12] | > 10000 | 4560 ± 1970 | −5 | – | > 10000 | > 10000 | 27 | 13 | 0.831 ± 0.331 | 43.7 ± 5.9 | Ki ([5]; ref Frost et al. [40]): 0.09 nM; CB2-selectivity previously reported ([5]; ref [40]): 167 fold; efficacy at CB1 receptor (in words) [11, 18]: lower efficacy than Δ^9-THC; EC50 ([11]; full concentration response curve, read-out: CB1: EC50, inhibition of cAMP accumulation): 11.7 ± 6.5 nM; Ki ([8]; ref Frost et al. [40]): 15 nM; EC50 [14]: 0.391 nM; CB2-selectivity in functional assay (EC50 CB1 vs CB2) ([14]; cAMP accumulation EC50 values): 30 fold; efficacy at CB2 receptor (in words) [14]: lower efficacy than Δ^9-THC; CB2 selectivity Ki CB1/KiCB2 [9, 19]: 52.6
7 | CN1CCCCC1Cn1cc(C(=O)C2C(C)(C)C2(C)C)c2ccccc21 (stereo not shown) [Compound 43, AB005] | > 10000 | > 10000 | 16 | 39 | > 10000 | > 10000 | −38 | −2 | – | – | Ki ([5]; ref Frost et al. [40]): 0.48 nM; efficacy at CB1 receptor (in words) [11]: lower efficacy than Δ^9-THC; Ki ([8]; ref Frost et al. [40]): 5.5 nM; efficacy at CB2 receptor (in words) [14]: lower efficacy than Δ^9-THC; CB2 selectivity Ki CB1/KiCB2 [9]: 57.1; Ki [9]: 1.04 nM; Ki [10]: 59.4 nM
8 | CC1(C)C(C(=O)c2cn(CCN3CCOCC3)c3ccccc23)C1(C)C [Compound 45, A-796,260] | > 10000 | – | −1 | – | > 10000 | > 10000 | 20 | −10 | 8.02 ± 0.77 | – | Ki ([5]; ref Frost et al.[29]): 4.4 nM
9 | CC1(C)C(C(=O)c2cn(CC3CCOCC3)c3ccccc23)C1(C)C [Compound 46, A-834,735] | > 10000 | – | 8 | – | > 10000 | > 10000 | 6 | 6 | 0.566 ± 0.153 | – | Ki ([5]; ref Frost et al.[29]): 0.21 nM; IC50 ([6]; Human GPR55 IC50 (extrapolated), Extrapolated values, a full curve could not be determined due to limited solubility): 6880 ± 1510 nM
10 | COc1cccc2c(C(=O)C3C4(C)CCC(C4)C3(C)C)c(C)n(CCN3CCOCC3)c12 (stereo not shown) [Compound 48, MN-25] | – | – | −8 | 47 | – | – | −12 | 30 | 2.77 ± 1.59 | 780 ± 66 | Ki ([5]; ref Wroblenski et al.[39]): 11 nM; EC50 ([6]; read-out: Human GPR55 EC50, β-arrestin assay, agonist mode): > 10000 nM; IC50 ([6]; read-out: Human GPR55 IC50, β-arrestin assay, antagonist mode): > 10000 nM; EC50 ([7]; read-out: Human GPR18 EC50, β-arrestin assay, agonist mode): > 10000 nM; IC50 ([7]; read-out: Human GPR18 IC50, β-arrestin assay, antagonist mode): > 10000 nM; Ki ([8]; ref Wroblenski et al.[39]): 245 nM; CB2 selectivity Ki CB1/KiCB2 [9, 19]: 282
11 | CCCCCn1cc(C(=O)Nc2ccc3ccccc3c2)c2ccccc21 [non-fluorinated derivative of compound 7, reference compound] | – | – | – | – | – | – | – | – | – | – | pKi value at the CB1 receptor ([8]; ref Blaazer et al. [33]): 7.2
